We go through 12 molecules from publication PMC4220016, “The binding characteristics and orientation of a novel radioligand with distinct properties at 5-HT3A and 5-HT3AB receptors” (Neuropharmacology, 2014).

Read-outs that look alike come from different tables or passages of the source.

Assay [1] deals with T1, 5-HT3AB receptors (Homo sapiens, UniProt O95264+P46098).
T1 sequence (P46098 24-478): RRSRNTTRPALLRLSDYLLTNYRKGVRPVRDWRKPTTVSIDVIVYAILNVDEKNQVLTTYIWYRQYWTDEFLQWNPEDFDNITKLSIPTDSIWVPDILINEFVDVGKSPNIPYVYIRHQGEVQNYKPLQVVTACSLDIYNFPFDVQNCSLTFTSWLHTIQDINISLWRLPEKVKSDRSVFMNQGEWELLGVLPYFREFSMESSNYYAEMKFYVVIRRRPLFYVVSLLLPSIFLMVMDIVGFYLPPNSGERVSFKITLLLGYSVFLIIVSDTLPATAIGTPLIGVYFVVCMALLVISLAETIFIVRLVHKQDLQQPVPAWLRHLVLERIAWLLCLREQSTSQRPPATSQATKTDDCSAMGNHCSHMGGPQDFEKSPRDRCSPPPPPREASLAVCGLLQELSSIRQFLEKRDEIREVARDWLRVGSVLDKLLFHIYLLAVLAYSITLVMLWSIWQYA
T1 sequence (O95264 22-441): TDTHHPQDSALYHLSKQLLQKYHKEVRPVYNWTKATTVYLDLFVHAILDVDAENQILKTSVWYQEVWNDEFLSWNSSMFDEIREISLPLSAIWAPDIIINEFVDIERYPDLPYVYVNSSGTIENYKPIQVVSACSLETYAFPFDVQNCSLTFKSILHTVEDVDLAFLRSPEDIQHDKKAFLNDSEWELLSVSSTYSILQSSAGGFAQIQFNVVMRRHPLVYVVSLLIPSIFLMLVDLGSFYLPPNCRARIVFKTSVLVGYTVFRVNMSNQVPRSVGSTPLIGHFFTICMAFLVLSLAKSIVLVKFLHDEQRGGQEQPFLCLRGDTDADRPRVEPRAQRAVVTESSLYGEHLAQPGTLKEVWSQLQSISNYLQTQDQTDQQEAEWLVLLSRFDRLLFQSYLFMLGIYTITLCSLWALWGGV
The assay can be described thus: Competition binding with [^3H]VUF10166 at 5-HT3AB receptors.

The target of assay [2] is T2, 5-HT3A receptors (Homo sapiens, UniProt P46098).
T2 sequence (P46098 24-478): T1 sequence (P46098 24-478)
The assay can be described thus: Competition binding with [^3H]VUF10166 at 5-HT3A receptors.

For assay [3], the target named is T2, 5-HT3A receptors. The assay can be described thus: biochemical.
Assay [4] deals with T1, 5-HT3AB receptors. The assay can be described thus: biochemical.
The target of assay [5] is T2, 5-HT3A receptors.

Regarding `NCC(=O)O` [Glycine], the “inhibition of specific [^3H]VUF10166 binding (in words)” value (“inhibition of specific” below) at 5-HT3AB receptors [1] (5-HT3AB) and on 5-HT3A receptors [2] (5-HT3A) was “not” each time.
With `CN1CCC[C@H]1c1cccnc1` [Nicotine], the IC50 (in general, the midpoint of a concentration-inhibition curve) against 5-HT3A receptors [3] was 0.977 µM; on 5-HT3AB receptors [4], 0.275 µM; on 5-HT3AB receptors [1], 0.174 µM; at 5-HT3A receptors [2], 0.155 µM. For the same molecule, the “competition with [^3H]granisetron (in words)” value on 5-HT3A receptors [5] was “competed”.
As to `O=C1C[C@@H]2OCC=C3CN4CC[C@]56c7ccccc7N1[C@H]5[C@H]2[C@H]3C[C@H]46` [Strychnine], the IC50 at 5-HT3A receptors [3] is 50.1 µM; against 5-HT3AB receptors [4] it was 14.1 µM; at 5-HT3AB receptors [1], 0.55 µM; at 5-HT3A receptors [2] it was 1.48 µM. The “competition with [^3H]granisetron (in words)” value at 5-HT3A receptors [5] is “competed”.
Turning to `CC(C)(C)[C@]1(O)CC2OC(=O)CC23C(=O)OC2OC(=O)[C@H](O)C231` (stereo partly shown) [Bilobalide], the “inhibition of specific” value at 5-HT3AB receptors [1] was “not”; at 5-HT3A receptors [2], “not and unaffected”.
On to `c1ccc2nc(N3CCNCC3)ccc2c1` [Quipazine], for which the “inhibition of specific” value at 5-HT3AB receptors [1] (5-HT3AB) and at 5-HT3A receptors [2] (5-HT3A) was “inhibited” in each case.
For the molecule `COc1cc2c3cc1Oc1cc(ccc1O)C[C@@H]1c4c(cc(OC)c(O)c4Oc4ccc(cc4)C[C@@H]3N(C)CC2)CC[N+]1(C)C` [d-Tubocurarine], the IC50 at 5-HT3A receptors [3] is 24.5 µM; against 5-HT3AB receptors [4], 51.3 µM; on 5-HT3AB receptors [1], 3.63 µM; on 5-HT3A receptors [2], 3.89 µM. Besides, the “inhibition of specific” value at 5-HT3AB receptors [1] and on 5-HT3A receptors [2] was “inhibited” each time.
Regarding `CC(=O)OCC[N+](C)(C)C` [ACh], the “inhibition of specific” value at 5-HT3AB receptors [1] (5-HT3AB) and on 5-HT3A receptors [2] (5-HT3A) was “not” throughout.
Consider `CN1[C@@H]2CC[C@H]1C[C@@H](OC(=O)c1cc(Cl)cc(Cl)c1)C2` [MDL72222], for which the “inhibition of specific” value on 5-HT3AB receptors [1] and at 5-HT3A receptors [2] was “inhibited” throughout.
For `CN1CCc2cc3c(cc2[C@H]1[C@@H]1OC(=O)c2c1ccc1c2OCO1)OCO3` [Bicuculline], the “inhibition of specific” value at 5-HT3AB receptors [1] and on 5-HT3A receptors [2] was “not” in each case.
Regarding `CC1C(=O)O[C@H]2[C@H](O)[C@@]34[C@H]5C[C@@H](C(C)(C)C)[C@@]36C(O)C(=O)O[C@H]6O[C@@]4(C(=O)O5)[C@@]12O` (stereo partly shown) [Ginkgolide], the “inhibition of specific” value at 5-HT3AB receptors [1] is “not”; on 5-HT3A receptors [2] it was “not and unaffected”.
In the case of Picrotoxin, the “inhibition of specific” value on 5-HT3AB receptors [1] was “not”; at 5-HT3A receptors [2] it was “not and unaffected”.
For the molecule `COc1ccc(-c2ccc(=N)n(CCCC(=O)O)n2)cc1` [Gabazine], the “inhibition of specific” value at 5-HT3AB receptors [1] (5-HT3AB) and on 5-HT3A receptors [2] (5-HT3A) was “not” in each case.
